Data on 3 compounds can be found in PMC10671074, “Tumor Regression upon Intratumoral and Subcutaneous Dosing of the STING Agonist ALG-031048 in Mouse Efficacy Models” (International Journal of Molecular Sciences, 2023).

Like-named read-outs stand apart in the source and are kept apart here. Marks after values point to notes of the source that are not given here.

A short description of one data set: Plasma stability, human. In kind it is in vitro ADME. Particulars: 37 °C, read-out: Plasma t½, Human. The procedure: (§1) The plasma stability assay was carried out on 96-well microtiter plates. The test compounds at 5 µM and the reference compound (propantheline) at 1 µM final concentration were incubated separately at 37 °C with mouse or human plasma for 0, 30, 60, and 240 min. At the end of each incubation time point, 300 μL of the quenching solution (50% acetonitrile, 50% methanol, and 0.05% formic acid) containing the internal standard was added to each well. The incubation plates were sealed, vortexed, and centrifuged at 4 °C for 15 min at 4000 rpm. The supernatant was transferred to fresh plates for LC/MS/MS analysis of the test compounds. The peak area ratios of each test compound over the internal standard were plotted against incubation time, and the t½ was calculated from the curve assuming first-order kinetics.

Another data set is described as follows: Plasma stability, mouse. Particulars: 37 °C, read-out: Plasma t½, Mouse. In kind it is in vitro ADME. As for the experimental part: as §1
The subject of data set [1] is primary human immature dendritic cells. Put plainly: Activation of primary human immature dendritic cells (CD83/CD86 flow cytometry). Particulars: for Surface expression of CD86 and CD83 (in words): iDCs and, to a lesser degree, monocytes, 24 and 72 h; for EC50: iDCs, 72 h after stimulation. The data set is classed as cell-based. The text has this:
Frozen human PBMCs (100 × 10^6 cells) were obtained from Stem Cell Technologies (Kent, WA, USA). Monocytes were purified from PBMCs using a CD14^+ pan-monocyte-negative isolation kit and an LS column (Miltenyi Biotec, Bergisch Gladbach, Germany). Magnetically labeled non-target cells were depleted by retaining them within a MACS column in the magnetic field of a MACS Separator, while highly purified unlabeled CD1 D16^− cells were collected and used to generate dendritic cells. To obtain immature monocyte-derived dendritic cells (iMDDCs), enriched monocytes were cultured in Mo-DC differentiation medium (Miltenyi Biotec) supplemented with human IL-4 (250 IU/mL, Miltenyi Biotec) and human GM-CSF (800 IU/mL, Miltenyi Biotec) at 37 °C in a T-150 flask in a 5% CO2 humidified incubator for 5 days; fresh media was replenished every 2–3 days.
[…] An aliquot of iMDDCs was also cultured in maturation media for 24–48 h and used as a control containing RPMI 1640, 10% FBS, 2 mM L-glutamine, and human TNF-α (6000 IU/mL, Miltenyi Biotec). The supernatant from the plate was frozen to assess cytokine production, and cells were analyzed via flow cytometry.
Cells were incubated with phosphate-buffered saline (PBS) containing 2% FBS and 2 mM of EDTA (FACS buffer) supplemented with 2 mg/mL of normal human IgG on ice for 15 min to block Fc receptors. The cell suspension was then incubated with a predetermined optimal concentration of the appropriate fluorescent dye-labeled monoclonal antibodies (mAbs) against human cell surface markers on ice for 30 min. The fluorescent dye-labeled mAbs against human cell surface molecules included anti-CD209, anti-CD14, anti-CD11c, anti-CD40, anti-HLA-DR, anti-CD86, and anti-CD83 (BD Biosciences, Franklin Lakes, NJ, USA or BioLegend, San Diego, CA, USA). In addition, a fixable live/dead stain (Thermo Fisher Scientific) at a dilution of 1:1000 was added to exclude dead cells. After several washes with FACS buffer, cells were resuspended in FACS buffer and analyzed on an Attune Nxt flow cytometer (Thermo Fisher Scientific) with FlowJo v10 software (BD Biosciences). An aliquot of the cells to be analyzed served as controls by using “fluorescent minus-one” to establish gates and determine the frequency of positively stained cells. Ultra-comp beads (Thermo Fisher Scientific) were used as single-stained controls to set up compensation on the flow cytometer.
On the technique in general: A flow cytometer gives signals particle by particle.

A short description of data set [2]: Liver microsomal stability, mouse. The settings on record: pH 7.4, 0.5 mg/mL mouse liver microsomes, 37 °C, read-out: Liver Microsome t½, Mouse. In kind it is in vitro ADME. The procedure:
(§2) The liver microsomal stability assay was carried out in 96-well microtiter plates. The test compounds at 5 µM and the reference compound (verapamil) at 1 µM final concentration were incubated separately at 37 °C with 0.5 mg/mL liver microsomes, with or without 1 mM NADPH in 100 mM potassium phosphate buffer, pH 7.4 with 3.3 mM MgCl2. […] At each of the time points (0, 15, 30, and 60 min), the enzymatic reaction was terminated with the addition of 150 μL of quenching solution (100% acetonitrile, 0.1% formic acid, and the internal standard), and subsequently the mixtures were vortexed vigorously for 20 min and centrifuged at 4000 rpm at 10 °C. The supernatants (80 µL) were transferred to a clean 96-well plate and analyzed via LC/MS/MS. The peak area ratios of each test compound over the internal standard were plotted against incubation time, and the t½ was calculated from the curve assuming first-order kinetics.
In general terms: Liver microsomes are vesicles of endoplasmic reticulum, rich in cytochrome P450 enzymes.

For data set [3] the following is noted: early clinical trial, patients; cited from earlier work.
Data set [4] is described as follows: Liver microsomal stability, human. In kind it is in vitro ADME. Particulars: pH 7.4, 0.5 mg/mL human liver microsomes, 37 °C, read-out: Liver Microsome t½, Human. As for the experimental part:
as §2

In the next data set the test system is primary human monocytes. The data set can be described thus: Activation of primary human monocytes (CD83/CD86 flow cytometry). In kind it is cell-based. Particulars: Monocyte, 24 h after stimulation. The text has this:
Frozen human PBMCs (100 × 10^6 cells) were obtained from Stem Cell Technologies (Kent, WA, USA). Monocytes were purified from PBMCs using a CD14^+ pan-monocyte-negative isolation kit and an LS column (Miltenyi Biotec, Bergisch Gladbach, Germany). Magnetically labeled non-target cells were depleted by retaining them within a MACS column in the magnetic field of a MACS Separator, while highly purified unlabeled CD1 D16^− cells were collected and used to generate dendritic cells.
The cell suspension was then incubated with a predetermined optimal concentration of the appropriate fluorescent dye-labeled monoclonal antibodies (mAbs) against human cell surface markers on ice for 30 min. The fluorescent dye-labeled mAbs against human cell surface molecules included anti-CD209, anti-CD14, anti-CD11c, anti-CD40, anti-HLA-DR, anti-CD86, and anti-CD83 (BD Biosciences, Franklin Lakes, NJ, USA or BioLegend, San Diego, CA, USA). In addition, a fixable live/dead stain (Thermo Fisher Scientific) at a dilution of 1:1000 was added to exclude dead cells. After several washes with FACS buffer, cells were resuspended in FACS buffer and analyzed on an Attune Nxt flow cytometer (Thermo Fisher Scientific) with FlowJo v10 software (BD Biosciences). An aliquot of the cells to be analyzed served as controls by using “fluorescent minus-one” to establish gates and determine the frequency of positively stained cells. Ultra-comp beads (Thermo Fisher Scientific) were used as single-stained controls to set up compensation on the flow cytometer.

Another data set concerns subcutaneous CT26 tumors. Put plainly: CT26 mouse colon carcinoma model. The settings on record: Table 2 study, 3 × q3d; for Median Time to Endpoint: vehicle 19.0.
For a further data set, the system named is MC38-hPD-L1 tumors. The data set can be described thus: MC38-hPD-L1 mouse colon carcinoma model. The data set is classed as in vivo. The settings on record: 5 mg/kg IP, BIW (4×). The text has this: Female C57/BL6 mice (Shanghai Lingchang Biotechnology Co., Ltd., Shanghai, China) were 5 to 8 weeks old with a body weight > 16 g at the time of inoculation. Animals were housed and fed as described above.
After inoculation with tumor cells, the animals were checked daily for morbidity and mortality. During routine monitoring, the animals were checked for any effects of tumor growth or test articles on behavior such as mobility, food and water consumption, body weight gain/loss (body weights were measured twice per week after randomization), eye/hair matting, and any other abnormalities. Tumor volumes were measured and calculated as described above.
Each group consisted of 10 animals. The control group was administered 5 mg/kg isotype control antibody in a volume of 10 μL/g of IP, BIW for 2.5 weeks, 5 doses total. The atezolizumab-treated group was administered 5 mg/kg in a volume of 10 μL/g of IP, BIW for 2.5 weeks, 5 doses total. […] Dosing started when average tumor volumes were 70 mm^3.

The term EC50 denotes the concentration needed to bring the measured effect to its halfway point. For `Nc1nc2c(ncn2[C@@H]2O[C@@H]3COP(=O)(O)O[C@H]4[C@@H](O)[C@H](n5cnc6c(N)ncnc65)O[C@@H]4COP(=O)(O)O[C@@H]2[C@@H]3O)c(=O)[nH]1` [2′3′ cGAMP, 2′3′ cyclic guanosine monophosphate–adenosine monophosphate], the half-life at 5 µM was 12.8 min in “Plasma stability, human” and 7.2 min in “Plasma stability, mouse”. The “Surface expression of CD86 and CD83 (in words)” value in data set [1] is “upregulated the surface expression of CD86 and CD83”. In addition, the EC50 in data set [1] (read-out: EC50 CD83, Immature Dendritic Cells) amounted to 3 µM; in data set [1] (read-out: EC50 CD86, Immature Dendritic Cells) it was 7 µM.
Take `Nc1ncnc2c1ncn2[C@@H]1O[C@@H]2CO[P@@](=O)(S)O[C@@H]3[C@H](O)[C@@H](CO[P@@](=O)(S)O[C@H]2[C@H]1O)O[C@H]3n1cnc2c(N)ncnc21` [ADU-S100]: the half-life at 5 µM in the data set “Plasma stability, human” was greater than 60 min; in [2] it was greater than 480 min; in data set [4] it was greater than 480 min; in the data set “Plasma stability, mouse”, greater than 60 min. In addition, the “terminal t½” value in data set [3] was 10 to 23 min. The EC50 with primary human monocytes (read-out: EC50 CD83, Monocytes) stood at 3.9 µM; in the data set with primary human monocytes (read-out: EC50 CD86, Monocytes), 0.49 µM; in data set [1] (Homo sapiens, Dendritic cell, read-out: EC50 CD83, Immature Dendritic Cells), 8 µM; in [1] (Homo sapiens, Dendritic cell, read-out: EC50 CD86, Immature Dendritic Cells), 25 µM. The “Surface expression of CD86 and CD83 (in words)” value in data set [1] was “upregulated the surface expression of CD86 and CD83”. In the data set on subcutaneous CT26 tumors (25 μg IT, Day 40), the “Animals with tumor regression by end of study” value is 1 of 10. Further, the “Delayed Response (TV > 10 and <2000 mm^3)” value turned out to be 40% ^a with subcutaneous CT26 tumors (25 μg IT, n = 10) and 10% ^b in the data set with subcutaneous CT26 tumors (100 μg IT, n = 10). In the data set on subcutaneous CT26 tumors (25 μg IT, n = 10), the “Treatment Failure (TV > 2000 mm^3)” value is reported as 50% ^a. The “Complete Response (TV < 10 mm^3)” value in the data set with subcutaneous CT26 tumors (25 μg IT, n = 10, BALB/c, end of study Day 40) was determined as 10% ^a. In addition, the “Median Time to Endpoint” value in the data set with subcutaneous CT26 tumors (25 μg IT, n = 10) was 36.5 days; with subcutaneous CT26 tumors (100 μg IT, n = 10), 40.0 days.
Turning to “Atezolizumab: anti-human PD-L1 antibody atezolizumab biosimilar provided by Crownbio [reference compound]”, in the data set with MC38-hPD-L1 tumors (Day 11), the “Tumor Reduction vs. Group 1 (vehicle)” value is 53.7%. In addition, the “TV on Day 11 (Median)” value in the data set on MC38-hPD-L1 tumors (n = 10, vehicle 2268) was 1050 mm^3.
